Laboratory results published in ChEMBL document CHEMBL1201862, “PubChem BioAssay data set” (2004).
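1) Cells in 96-well plates. 2) Compound, 48 h, 5 concentrations. 3) Linear interpolation between surrounding doses. 4) Unreached endpoint = highest concentration. Here, GI50 denotes the concentration required for 50% inhibition of growth.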 The source made the active and inactive calls. No stated cut-off is given here; in the data, active = GI50 up to about 1.1 µM and inactive = higher.

Legend:
Assay in all cases: NCI anticancer screen, dose series, 48 h
M19-MEL = system: M19-MEL
HOP-18 = system: HOP-18
A498 = system: A498
OVCAR-5 = system: OVCAR-5
Malme-3M = system: Malme-3M
IGROV-1 = system: IGROV-1
NCI/ADR-RES = system: NCI/ADR-RES
UACC-257 = system: UACC-257
COLO 205 = system: COLO 205
KM12 = system: KM12
OVCAR-3 = system: OVCAR-3
NCI-H23 = system: NCI-H23
MCF7 = system: MCF7
NCI-H460 = system: NCI-H460
SF-295 = system: SF-295
UACC-62 = system: UACC-62
KM-20L2 = system: KM-20L2
SF-539 = system: SF-539
HT-29 = system: HT-29
K562 = system: K562
DLD-1 = system: DLD-1
CCRF-CEM = system: CCRF-CEM
SK-MEL-2 = system: SK-MEL-2
RPMI-8226 = system: RPMI-8226
SK-OV-3 = system: SK-OV-3
SK-MEL-5 = system: SK-MEL-5
SW-620 = system: SW-620
XF498 = system: XF498
OVCAR-4 = system: OVCAR-4
SN12C = system: SN12C
SNB-75 = system: SNB-75
HCC 2998 = system: HCC 2998
HOP-92 = system: HOP-92
MOLT-4 = system: MOLT-4
HOP-62 = system: HOP-62
HCT-15 = system: HCT-15
SF-268 = system: SF-268
A549 = system: A549
DMS-273 = system: DMS-273
U-251 = system: U-251
SK-MEL-28 = system: SK-MEL-28
OVCAR-8 = system: OVCAR-8
UO-31 = system: UO-31
SNB-78 = system: SNB-78
RXF 393 = system: RXF 393
SNB-19 = system: SNB-19
HL-60 = system: HL-60
NCI-H522 = system: NCI-H522
HCT-116 = system: HCT-116
DMS-114 = system: DMS-114
CAKI-1 = system: CAKI-1
LOX IMVI = system: LOX IMVI
EKVX = system: EKVX
786-0 = system: 786-0
TK-10 = system: TK-10
SR = system: SR
M14 = system: M14
ACHN = system: ACHN
LXFL 529 = system: LXFL 529
NCI-H226 = system: NCI-H226

O=NN(CCF)C(=O)NC1CCSCC1
GI50 (M19-MEL): > 100 µM (inactive)
GI50 (HOP-18): > 100 µM (inactive)
GI50 (A498): > 100 µM (inactive)
GI50 (OVCAR-5): > 100 µM (inactive)
GI50 (Malme-3M): > 100 µM (inactive)
GI50 (IGROV-1): > 100 µM (inactive)
GI50 (NCI/ADR-RES): > 100 µM (inactive)
GI50 (UACC-257): > 100 µM (inactive)
GI50 (COLO 205): > 100 µM (inactive)
GI50 (KM12): > 100 µM (inactive)
GI50 (OVCAR-3): > 100 µM (inactive)
GI50 (NCI-H23): > 100 µM (inactive)
GI50 (MCF7): > 100 µM (inactive)
GI50 (NCI-H460): > 100 µM (inactive)
GI50 (SF-295): > 100 µM (inactive)
GI50 (UACC-62): > 100 µM (inactive)
GI50 (KM-20L2): > 100 µM (inactive)
GI50 (SF-539): > 100 µM (inactive)
GI50 (HT-29): > 100 µM (inactive)
GI50 (K562): > 31.6 µM (inactive)
GI50 (DLD-1): > 100 µM (inactive)
GI50 (CCRF-CEM): > 100 µM (inactive)
GI50 (SK-MEL-2): > 100 µM (inactive)
GI50 (RPMI-8226): > 100 µM (inactive)
GI50 (SK-OV-3): > 100 µM (inactive)
GI50 (SK-MEL-5): > 100 µM (inactive)
GI50 (SW-620): > 100 µM (inactive)
GI50 (XF498): < 0.01 µM (active)
GI50 (OVCAR-4): > 100 µM (inactive)
GI50 (SN12C): > 100 µM (inactive)
GI50 (SNB-75): > 100 µM (inactive)
GI50 (HCC 2998): > 100 µM (inactive)
GI50 (HOP-92): > 100 µM (inactive)
GI50 (MOLT-4): > 100 µM (inactive)
GI50 (HOP-62): 1 µM (active)
GI50 (HCT-15): > 100 µM
GI50 (SF-268): > 100 µM (inactive)
GI50 (A549): > 100 µM (inactive)
GI50 (DMS-273): > 100 µM (inactive)
GI50 (U-251): > 100 µM (inactive)
GI50 (SK-MEL-28): > 100 µM (inactive)
GI50 (OVCAR-8): > 100 µM (inactive)
GI50 (UO-31): > 100 µM (inactive)
GI50 (SNB-78): > 100 µM (inactive)
GI50 (RXF 393): > 100 µM (inactive)
GI50 (SNB-19): > 100 µM (inactive)
GI50 (HL-60): > 100 µM (inactive)
GI50 (NCI-H522): > 100 µM (inactive)
GI50 (HCT-116): > 100 µM (inactive)
GI50 (DMS-114): > 100 µM (inactive)
GI50 (CAKI-1): > 100 µM (inactive)
GI50 (LOX IMVI): > 100 µM (inactive)

CN(CCO)c1nc(=O)c2c([nH]1)CCC2
GI50 (M19-MEL): > 100 µM (inactive)
GI50 (HOP-18): > 100 µM (inactive)
GI50 (OVCAR-5): > 100 µM (inactive)
GI50 (EKVX): > 100 µM (inactive)
GI50 (Malme-3M): > 100 µM (inactive)
GI50 (IGROV-1): > 100 µM (inactive)
GI50 (UACC-257): > 100 µM (inactive)
GI50 (COLO 205): > 100 µM (inactive)
GI50 (KM12): > 100 µM (inactive)
GI50 (OVCAR-3): > 100 µM (inactive)
GI50 (786-0): > 100 µM (inactive)
GI50 (NCI-H23): > 100 µM (inactive)
GI50 (NCI-H460): > 100 µM (inactive)
GI50 (SF-295): > 100 µM (inactive)
GI50 (UACC-62): > 100 µM (inactive)
GI50 (TK-10): > 100 µM (inactive)
GI50 (SR): > 100 µM (inactive)
GI50 (KM-20L2): > 100 µM (inactive)
GI50 (SF-539): > 100 µM (inactive)
GI50 (HT-29): > 100 µM (inactive)
GI50 (M14): > 100 µM (inactive)
GI50 (ACHN): > 100 µM (inactive)
GI50 (K562): > 100 µM (inactive)
GI50 (DLD-1): > 100 µM (inactive)
GI50 (CCRF-CEM): > 100 µM (inactive)
GI50 (SK-MEL-2): > 100 µM (inactive)
GI50 (RPMI-8226): > 100 µM (inactive)
GI50 (SK-OV-3): > 100 µM (inactive)
GI50 (SK-MEL-5): > 100 µM (inactive)
GI50 (SW-620): > 100 µM (inactive)
GI50 (XF498): > 100 µM (inactive)
GI50 (OVCAR-4): > 100 µM (inactive)
GI50 (SN12C): > 100 µM (inactive)
GI50 (SNB-75): 43.9 µM (inactive)
GI50 (HCC 2998): > 100 µM (inactive)
GI50 (HOP-92): > 100 µM (inactive)
GI50 (MOLT-4): > 100 µM (inactive)
GI50 (HOP-62): > 100 µM (inactive)
GI50 (HCT-15): > 100 µM
GI50 (SF-268): > 100 µM (inactive)
GI50 (A549): > 100 µM (inactive)
GI50 (LXFL 529): > 100 µM (inactive)
GI50 (DMS-273): > 100 µM (inactive)
GI50 (U-251): > 100 µM (inactive)
GI50 (NCI-H226): > 100 µM (inactive)
GI50 (SK-MEL-28): > 100 µM (inactive)
GI50 (OVCAR-8): > 100 µM (inactive)
GI50 (UO-31): > 100 µM (inactive)
GI50 (SNB-78): > 100 µM (inactive)
GI50 (RXF 393): > 100 µM (inactive)
GI50 (SNB-19): > 100 µM (inactive)
GI50 (HL-60): > 100 µM (inactive)
GI50 (NCI-H522): > 100 µM (inactive)
GI50 (HCT-116): > 100 µM (inactive)
GI50 (DMS-114): > 100 µM (inactive)
GI50 (CAKI-1): > 100 µM (inactive)
GI50 (LOX IMVI): > 100 µM (inactive)

N#CNC1=NC(CCCC(=O)Nc2cccc([N+](=O)[O-])c2)=C(c2nc3ccccc3[nH]2)C(N)N1 (stereo unspecified)
GI50 (M19-MEL): > 100 µM (inactive)
GI50 (HOP-18): 64.9 µM (inactive)
GI50 (OVCAR-5): > 100 µM (inactive)
GI50 (EKVX): > 100 µM (inactive)
GI50 (Malme-3M): > 100 µM (inactive)
GI50 (IGROV-1): > 100 µM (inactive)
GI50 (UACC-257): > 100 µM (inactive)
GI50 (COLO 205): > 100 µM (inactive)
GI50 (KM12): > 100 µM (inactive)
GI50 (OVCAR-3): > 100 µM (inactive)
GI50 (786-0): > 100 µM (inactive)
GI50 (NCI-H23): > 100 µM (inactive)
GI50 (NCI-H460): > 100 µM (inactive)
GI50 (SF-295): > 100 µM (inactive)
GI50 (UACC-62): > 100 µM (inactive)
GI50 (TK-10): > 100 µM (inactive)
GI50 (KM-20L2): > 100 µM (inactive)
GI50 (SF-539): > 100 µM (inactive)
GI50 (HT-29): > 100 µM (inactive)
GI50 (M14): > 100 µM (inactive)
GI50 (ACHN): > 100 µM (inactive)
GI50 (K562): > 100 µM (inactive)
GI50 (DLD-1): > 100 µM (inactive)
GI50 (CCRF-CEM): > 100 µM (inactive)
GI50 (SK-MEL-2): > 100 µM (inactive)
GI50 (RPMI-8226): > 100 µM (inactive)
GI50 (SK-OV-3): > 100 µM (inactive)
GI50 (SK-MEL-5): > 100 µM (inactive)
GI50 (SW-620): > 100 µM (inactive)
GI50 (XF498): > 100 µM (inactive)
GI50 (OVCAR-4): > 100 µM (inactive)
GI50 (SN12C): > 100 µM (inactive)
GI50 (SNB-75): > 100 µM (inactive)
GI50 (HCC 2998): > 100 µM (inactive)
GI50 (MOLT-4): > 100 µM (inactive)
GI50 (HOP-62): > 100 µM (inactive)
GI50 (HCT-15): 76.7 µM
GI50 (SF-268): > 100 µM (inactive)
GI50 (A549): > 100 µM (inactive)
GI50 (LXFL 529): > 100 µM (inactive)
GI50 (DMS-273): > 100 µM (inactive)
GI50 (NCI-H226): > 100 µM (inactive)
GI50 (SK-MEL-28): > 100 µM (inactive)
GI50 (OVCAR-8): > 100 µM (inactive)
GI50 (UO-31): > 100 µM (inactive)
GI50 (RXF 393): > 100 µM (inactive)
GI50 (SNB-19): > 100 µM (inactive)
GI50 (HL-60): > 100 µM (inactive)
GI50 (NCI-H522): > 100 µM (inactive)
GI50 (DMS-114): > 100 µM (inactive)
GI50 (CAKI-1): > 100 µM (inactive)
GI50 (LOX IMVI): > 100 µM (inactive)
